The values below come from ChEMBL document CHEMBL2202991, “The effect of the length and flexibility of the side chain of basic amino acids on the binding of antimicrobial peptides to zwitterionic and anionic membrane model systems” (Bioorg Med Chem, 2012).

Each structure is given as a SMILES string. The source made the active and inactive calls. No cut-off for these calls is given here. Non-standard residues stand in square brackets, D forms with d. Residues, ends and D or L forms follow the SMILES beside them. ξ: configuration not given here. Pro(3ξ,4ξ-(CH2)4) = O=C(O)[C@H]1NCC2CCCCC21; Tic = O=C(O)[C@@H]1Cc2ccccc2CN1; ξR = N=C(N)NCCCC(N)C(=O)O; Dab = NCC[C@H](N)C(=O)O; Dap = NC[C@H](N)C(=O)O

The subject of experiment [1] is Lipid bilayer. In words: Binding affinity to 4:1 POPC/POPG large unilamellar vesicle assessed as lipid:compound molar ratio for complete interaction at 0.2 mM by isothermal titration calorimetric analysis. In general terms: In ITC the heat of successive injections is recorded.
Experiment [2] has as its system Lipid bilayer. As to the kind of experiment: Binding affinity to POPC large unilamellar vesicle at 0.2 mM by isothermal titration calorimetric analysis.
Experiment [3] deals with Lipid bilayer. In words: Binding affinity to POPC large unilamellar vesicle assessed as lipid:compound molar ratio for complete interaction at 0.2 mM by isothermal titration calorimetric analysis.
The test system of experiment [4] is Lipid bilayer. As to the kind of experiment: Binding affinity to 4:1 POPC/POPG small unilamellar vesicle at 100 uM by circular dichroism analysis. Background: Circular dichroism is the unequal absorption of left and right circularly polarised light.
The test system of experiment [5] is Lipid bilayer. As to the kind of experiment: Binding affinity to 4:1 POPC/POPG large unilamellar vesicle at 200 uM by pseudo titration-based circular dichroism analysis.
Experiment [6] concerns Lipid bilayer. In words: Binding affinity to POPC large unilamellar vesicle at 200 uM by pseudo titration based circular dichroism analysis.
The subject of experiment [7] is Lipid bilayer. In words: Binding affinity to 4:1 POPC/POPG large unilamellar vesicle at 100 uM by circular dichroism analysis.
The subject of experiment [8] is Lipid bilayer. As to the kind of experiment: Binding affinity to POPC small unilamellar vesicle at 100 uM by circular dichroism analysis.
Experiment [9] concerns Lipid bilayer. In words: Binding affinity to POPC large unilamellar vesicle at 200 uM by circular dichroism analysis.
Experiment [10] in a line: Binding affinity to zwitterionic dodecylphosphocholine micelle at 100 uM by circular dichroism analysis.
Experiment [11] in a line: Binding affinity to anionic sodium dodecyl sulfate micelle at 100 uM by circular dichroism analysis.
Experiment [12] deals with Lipid bilayer. In words: Binding affinity to 4:1 POPC/POPG large unilamellar vesicles assessed as calcein leakage at 20 uM measured up to 90 mins by fluorimetric analysis.
Experiment [13] concerns Lipid bilayer. As to the kind of experiment: Binding affinity to POPC large unilamellar vesicles assessed as calcein leakage at 20 uM measured up to 90 mins by fluorimetric analysis.
For experiment [14], the system named is Lipid bilayer. In words: Binding affinity to POPC large unilamellar vesicle at 100 uM by pseudo titration based circular dichroism analysis.
In experiment [15] the test system is Lipid bilayer. As to the kind of experiment: Binding affinity to POPC large unilamellar vesicle at 100 uM by circular dichroism analysis.
The test system of experiment [16] is Lipid bilayer. In words: Binding affinity to 4:1 POPC/POPG large unilamellar vesicles assessed as calcein leakage at 4 to 20 uM measured up to 90 mins by fluorimetric analysis.
Experiment [17] deals with Lipid bilayer. In words: Binding affinity to POPC large unilamellar vesicles assessed as calcein leakage at 4 to 20 uM measured up to 90 mins by fluorimetric analysis.
Experiment [18] deals with Lipid bilayer. As to the kind of experiment: Binding affinity to 4:1 POPC/POPG large unilamellar vesicle assessed as lipid:compound molar ratio required for integration into membrane at 200 uM by pseudo titration-based circular dichroism analysis.
Experiment [19] concerns Lipid bilayer. As to the kind of experiment: Binding affinity to 4:1 POPC/POPG large unilamellar vesicle assessed as lipid:compound molar ratio required for integration into membrane at 100 uM by pseudo titration-based circular dichroism analysis.
Experiment [20] relates to Lipid bilayer. In words: Binding affinity to 4:1 POPC/POPG large unilamellar vesicles assessed as calcein leakage at 4 uM measured up to 90 mins by fluorimetric analysis.
Experiment [21] concerns Lipid bilayer. As to the kind of experiment: Binding affinity to POPC large unilamellar vesicles assessed as calcein leakage at 4 uM measured up to 90 mins by fluorimetric analysis.

Turning to `CC(=O)NCC(=O)N[C@@H](Cc1ccccc1)C(=O)N1Cc2ccccc2C[C@H]1C(=O)N1CC2CCCCC2[C@H]1C(=O)NCC(=O)N[C@@H](CN)C(=O)N1Cc2ccccc2C[C@H]1C(=O)N1CC2CCCCC2[C@H]1C(=O)NCC(=O)N[C@@H](Cc1ccccc1)C(=O)N1Cc2ccccc2C[C@H]1C(=O)N1CC2CCCCC2[C@H]1C(=O)NCC(=O)N[C@@H](CN)C(=O)N1Cc2ccccc2C[C@H]1C(=O)N[C@@H](CN)C(=O)N[C@@H](CN)C(=O)N[C@@H](CN)C(=O)N[C@@H](CN)C(N)=O` (some centres not stated) (Ac-GF[Tic][Pro(3ξ,4ξ-(CH2)4)]G[Dap][Tic][Pro(3ξ,4ξ-(CH2)4)]GF[Tic][Pro(3ξ,4ξ-(CH2)4)]G[Dap][Tic][Dap][Dap][Dap][Dap]-NH2), the Activity with Lipid bilayer [1] was 55 molar ratio; with Lipid bilayer [3] it was 55 molar ratio; with Lipid bilayer [12], 100%; in the experiment on Lipid bilayer [13], 100%. The same compound displayed a Kb in the experiment on Lipid bilayer [2] of 570 M⁻¹. In addition, the outcome in the experiment with Lipid bilayer [4], in the experiment on Lipid bilayer [5], in the experiment on Lipid bilayer [6], with Lipid bilayer [7], with Lipid bilayer [8] and with Lipid bilayer [9] was Active. Besides, the outcome in experiment [10] and in [11] was Active.
`CC(=O)NCC(=O)N[C@@H](Cc1ccccc1)C(=O)N1Cc2ccccc2C[C@H]1C(=O)N1CC2CCCCC2[C@H]1C(=O)NCC(=O)N[C@@H](CCN)C(=O)N1Cc2ccccc2C[C@H]1C(=O)N1CC2CCCCC2[C@H]1C(=O)NCC(=O)N[C@@H](Cc1ccccc1)C(=O)N1Cc2ccccc2C[C@H]1C(=O)N1CC2CCCCC2[C@H]1C(=O)NCC(=O)N[C@@H](CCN)C(=O)N1Cc2ccccc2C[C@H]1C(=O)N[C@@H](CCN)C(=O)N[C@@H](CCN)C(=O)N[C@@H](CCN)C(=O)N[C@@H](CCN)C(N)=O` (some centres not stated) (Ac-GF[Tic][Pro(3ξ,4ξ-(CH2)4)]G[Dab][Tic][Pro(3ξ,4ξ-(CH2)4)]GF[Tic][Pro(3ξ,4ξ-(CH2)4)]G[Dab][Tic][Dab][Dab][Dab][Dab]-NH2): the Activity in the experiment with Lipid bilayer [1] turned out to be 20 molar ratio; in the experiment on Lipid bilayer [3], 130 molar ratio; in the experiment on Lipid bilayer [18], 22 molar ratio. In addition, the Kb with Lipid bilayer [2] amounted to 240 M⁻¹. The result (in the experiment on Lipid bilayer [4]; in the experiment on Lipid bilayer [14]; in the experiment on Lipid bilayer [7]; in the experiment on Lipid bilayer [8]; in the experiment on Lipid bilayer [15]; in [10]) was Active. Moreover, the result (in experiment [11]; in the experiment with Lipid bilayer [16]; with Lipid bilayer [17]) was Active.
Regarding `CC(=O)NCC(=O)N[C@@H](Cc1ccccc1)C(=O)N1Cc2ccccc2C[C@H]1C(=O)N1CC2CCCCC2[C@H]1C(=O)NCC(=O)NC(CCCNC(=N)N)C(=O)N1Cc2ccccc2C[C@H]1C(=O)N1CC2CCCCC2[C@H]1C(=O)NCC(=O)N[C@@H](Cc1ccccc1)C(=O)N1Cc2ccccc2C[C@H]1C(=O)N1CC2CCCCC2[C@H]1C(=O)NCC(=O)N[C@@H](CCCNC(=N)N)C(=O)N1Cc2ccccc2C[C@H]1C(=O)N[C@@H](CCCNC(=N)N)C(=O)N[C@@H](CCCNC(=N)N)C(=O)N[C@@H](CCCNC(=N)N)C(=O)N[C@@H](CCCNC(=N)N)C(N)=O` (some centres not stated) (Ac-GF[Tic][Pro(3ξ,4ξ-(CH2)4)]G[ξR][Tic][Pro(3ξ,4ξ-(CH2)4)]GF[Tic][Pro(3ξ,4ξ-(CH2)4)]GR[Tic]RRRR-NH2), the Activity in the experiment on Lipid bilayer [1] is 30 molar ratio; in the experiment on Lipid bilayer [3] it was 150 molar ratio; with Lipid bilayer [19], 52 molar ratio; with Lipid bilayer [20], 50%; with Lipid bilayer [12] it was 90%; with Lipid bilayer [21], 60%. In the experiment with Lipid bilayer [13], the Activity is 60%. This compound also returned a Kb in the experiment with Lipid bilayer [2] of 479 M⁻¹. Besides, the result (with Lipid bilayer [4]; in the experiment with Lipid bilayer [14]; in the experiment on Lipid bilayer [7]; with Lipid bilayer [8]; with Lipid bilayer [15]; in experiment [10]) was Active. Further, the outcome in experiment [11] was Active.
As to `CC(=O)NCC(=O)N[C@@H](Cc1ccccc1)C(=O)N1Cc2ccccc2C[C@H]1C(=O)N1CC2CCCCC2[C@@H]1C(=O)NCC(=O)N[C@H](CCCN)C(=O)N1Cc2ccccc2C[C@@H]1C(=O)N1CC2CCCCC2[C@H]1C(=O)NCC(=O)NC(Cc1ccccc1)C(=O)N1Cc2ccccc2C[C@@H]1C(=O)N1CC2CCCCC2[C@@H]1C(=O)NCC(=O)N[C@H](CCCN)C(=O)N1Cc2ccccc2C[C@@H]1C(=O)N[C@H](CCCN)C(=O)N[C@H](CCCN)C(=O)N[C@H](CCCN)C(=O)N[C@H](CCCN)C(N)=O` (single isomer, unassigned), the Activity with Lipid bilayer [1] came to 28 molar ratio; in the experiment on Lipid bilayer [3], 130 molar ratio; in the experiment on Lipid bilayer [18] it was 36 molar ratio. The compound also came in with a Kb in the experiment on Lipid bilayer [2] of 191 M⁻¹. The result (in the experiment with Lipid bilayer [4]; in the experiment with Lipid bilayer [14]; in the experiment with Lipid bilayer [7]; in the experiment on Lipid bilayer [8]; in the experiment on Lipid bilayer [15]; in experiment [10]) was Active. For the same compound, the result (in experiment [11]; with Lipid bilayer [16]; in the experiment on Lipid bilayer [17]) was Active.
For the compound `CC(=O)NCC(=O)N[C@@H](Cc1ccccc1)C(=O)N1Cc2ccccc2C[C@H]1C(=O)N1CC2CCCCC2[C@H]1C(=O)NCC(=O)N[C@@H](CCCCN)C(=O)N1Cc2ccccc2C[C@H]1C(=O)N1CC2CCCCC2[C@H]1C(=O)NCC(=O)N[C@@H](Cc1ccccc1)C(=O)N1Cc2ccccc2C[C@H]1C(=O)N1CC2CCCCC2[C@H]1C(=O)NCC(=O)N[C@@H](CCCCN)C(=O)N1Cc2ccccc2C[C@H]1C(=O)N[C@@H](CCCCN)C(=O)N[C@@H](CCCCN)C(=O)N[C@@H](CCCCN)C(=O)N[C@@H](CCCCN)C(N)=O` (some centres not stated) (Ac-GF[Tic][Pro(3ξ,4ξ-(CH2)4)]GK[Tic][Pro(3ξ,4ξ-(CH2)4)]GF[Tic][Pro(3ξ,4ξ-(CH2)4)]GK[Tic]KKKK-NH2), the Activity in the experiment with Lipid bilayer [1] is 30 molar ratio; with Lipid bilayer [3], 120 molar ratio; in the experiment on Lipid bilayer [12], 40%; in the experiment with Lipid bilayer [13], 25%; in the experiment with Lipid bilayer [18], 39 molar ratio. In the experiment on Lipid bilayer [2], the Kb turned out to be 211 M⁻¹. The outcome (with Lipid bilayer [4]; in the experiment on Lipid bilayer [6]; in the experiment on Lipid bilayer [7]; with Lipid bilayer [8]; with Lipid bilayer [9]; in experiment [10]) was Active. For the same compound, the outcome in experiment [11] was Active.
